This note sets out measurements from ChEMBL document CHEMBL1159026, “Brominated beta-carbolines from the marine tunicate Eudistoma album” (1992).

≈ marks a conversion by molar mass, not a printed value.

What all share (assay type): functional
The subject of assay [1] is KB. In words: Cytotoxicity against human KB cells at 5 ug/ml.
Assay [2] concerns KB. In words: Cytotoxicity against human KB cells at 10 ug/ml.
In assay [3] the test system is KB. In words: Cytotoxicity against human KB cells. The following applies: read-out: ED50 (the source's name).
For assay [4], the system named is KB. In words: Cytotoxicity against human KB cells at 0.005 to 10 ug/ml.
Assay [5] concerns KB. In words: Cytotoxicity against human KB cells at 1 ug/ml.

In the case of `CC(C)CC(N)c1nccc2c1[nH]c1cc(Br)ccc12` (centres undefined) [EUDISTALBIN A], the Activity in the assay with KB [1] amounted to 92%; in the assay on KB [2], 100%; in the assay with KB [5], 0%. Moreover, the EC50 in the assay on KB [3] came to 3.2 µg/mL (≈ 9.63 µM); in the assay with KB [4] (Homo sapiens, KB, read-out: ED50 (the source's name)), 3.2 µg/mL (≈ 9.63 µM).
With `CC(C)CC(=O)c1nccc2c1[nH]c1cc(Br)ccc12` [EUDISTALBIN B], the Activity with KB [2] and in the assay on KB [5] was 0% throughout.
With `N[C@@H]1CSCON2CCc3c([nH]c4ccc(O)c(Br)c34)[C@H]12` [EUDISTOMIN E], the EC50 with KB [3] is under 0.005 µg/mL. The same compound yielded an Activity in the assay with KB [4] of 100%.
